Laboratory results as given in ChEMBL document CHEMBL1909600, “Ganodone, a bioactive benzofuran from the fruiting bodies of Ganoderma tsugae” (J Nat Prod, 2011).

Tests used:
HeLa = assay: Cytotoxicity against human HeLa cells after 24 hrs by MTT assay; format: functional, cell-based
[1] = Cytotoxicity against mouse Neuro2a cells after 24 hrs by MTT assay; format: functional, cell-based; settings: N2a
HCT-116 [2] = assay: Cellular uptake in human HCT116 cells at 1 uM after 1 hr by confocal fluorescence microscopy; format: ADME, cell-based; settings: hct-116, 1 h
[3] = Drug uptake in human HCT116 cell chromatin at 1 uM after 12 hrs by confocal fluorescence microscopy; format: ADME, cell-based; settings: hct-116, 12 h
HCT-116 [4] = assay: Cytotoxicity against human HCT116 cells after 24 hrs by MTT assay; format: functional, cell-based; settings: HCT-116, 24 h
[5] = Drug uptake in human HCT116 mitochondria at 1 uM by using Mito Tracker Red 580 staining; format: ADME
[6] = Drug uptake in human HCT116 cell nuclear membrane at 1 uM after 12 hrs by confocal fluorescence microscopy; format: ADME, cell membranes; settings: hct-116, 12 h
[7] = Drug uptake in human HCT116 cell subcellular region at 1 uM incubated for 3 hrs measured after 30 hrs of drug washout by confocal fluorescence microscopy; format: ADME, cell-based; settings: hct-116, 3 h
[8] = Drug uptake in human HCT116 cell lysosomes at 1 uM by using Lyso Tracker Red DND-99 staining; format: ADME, cell-based, Lysosome; settings: hct-116, 1 µM
[9] = Drug uptake in human HCT116 cell […] at 1 uM by using Lyso Tracker Red DND-99 staining; format: ADME, cell-based; settings: hct-116, 1 µM
[10] = Drug uptake in human HCT116 cells cytosol at 1 uM after 12 hrs by confocal fluorescence microscopy; format: ADME, cell-based, HCT-116

- Drug uptake (HCT-116 [2]): Active
- Drug uptake [3]: Active
- Drug uptake [5]: Not Active
- Drug uptake [6]: Active
- Drug uptake [7]: Active
- Drug uptake [8]: Not Active
- Drug uptake [9]: Not Active
- Drug uptake [10]: Active
Structure (SMILES): CC(=O)c1ccc(OC2Cc3c(ccc(C(C)=O)c3O)O2)cc1O (stereo unspecified)
- IC50 (HeLa): 490 nM
- IC50 [1]: 81 nM
- IC50 (HCT-116 [4]): 220 nM
